The record followed here is patent publication USRE46511E1, “Fused pyrimidine derivatives for inhibition of tyrosine kinase activity” (HANMI SCIENCE CO., LTD., priority 2010, dated 2017).

In one assay the target is T1, BTK (Homo sapiens, UniProt Q06187).
T1 construct: purchased Invitrogen
Description: z-lyte kinase assay, BTK. Format: biochemical. Put shortly: (§1)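 Each kinase was mixed with peptide substrate, compound (dilution series made at 1–0.0001 μM in 4% DMSO) and ATP added from a 5~300 μM solution, then incubated 60 min at RT. After development reagent and stop solution, fluorescence was read at 400 nm excitation/520 nm emission and IC50 calculated.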

Another assay deals with T2, JAK3 (Homo sapiens, UniProt P52333).
T2 construct: purchased Invitrogen
T2 sequence (P52333 1-1124): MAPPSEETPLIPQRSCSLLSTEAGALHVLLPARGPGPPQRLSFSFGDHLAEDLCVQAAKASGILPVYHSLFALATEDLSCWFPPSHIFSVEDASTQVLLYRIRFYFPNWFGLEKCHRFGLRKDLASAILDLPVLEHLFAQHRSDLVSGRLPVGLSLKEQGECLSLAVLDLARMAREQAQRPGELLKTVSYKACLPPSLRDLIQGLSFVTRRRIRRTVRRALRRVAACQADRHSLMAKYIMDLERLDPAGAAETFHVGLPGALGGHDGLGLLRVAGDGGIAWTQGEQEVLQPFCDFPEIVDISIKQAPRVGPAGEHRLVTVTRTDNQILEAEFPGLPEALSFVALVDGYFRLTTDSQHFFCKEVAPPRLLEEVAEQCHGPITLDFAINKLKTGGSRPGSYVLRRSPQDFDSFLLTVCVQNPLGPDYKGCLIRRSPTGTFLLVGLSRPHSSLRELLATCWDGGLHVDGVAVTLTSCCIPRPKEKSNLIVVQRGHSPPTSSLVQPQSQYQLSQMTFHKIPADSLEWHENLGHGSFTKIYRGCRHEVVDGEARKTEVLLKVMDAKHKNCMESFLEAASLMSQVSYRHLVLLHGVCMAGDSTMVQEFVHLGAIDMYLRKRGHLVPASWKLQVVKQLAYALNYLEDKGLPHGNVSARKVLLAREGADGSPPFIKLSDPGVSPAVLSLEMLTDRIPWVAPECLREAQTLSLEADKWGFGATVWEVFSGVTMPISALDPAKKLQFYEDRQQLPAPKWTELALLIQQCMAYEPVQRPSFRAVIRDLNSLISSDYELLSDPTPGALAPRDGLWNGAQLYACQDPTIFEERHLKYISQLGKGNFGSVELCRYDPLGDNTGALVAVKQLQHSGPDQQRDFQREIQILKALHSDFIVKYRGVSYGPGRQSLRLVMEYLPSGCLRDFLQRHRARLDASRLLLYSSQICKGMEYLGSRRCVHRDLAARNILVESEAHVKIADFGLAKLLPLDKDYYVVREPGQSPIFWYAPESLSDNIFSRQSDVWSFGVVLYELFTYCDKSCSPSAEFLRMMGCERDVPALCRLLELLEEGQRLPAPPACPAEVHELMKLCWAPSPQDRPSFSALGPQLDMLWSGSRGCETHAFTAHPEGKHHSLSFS
The assay can be described thus: z-lyte kinase assay, JAK3. Format: biochemical. Put shortly:
as §1

Assay [1] relates to HCC827 (EGFR DelE746_A750). Description: Inhibition test for growth of cancer cell expressing EGFR (SRB), HCC827.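 Further: cells in 96-well plates exposed to tenfold serial dilutions from 100 µM, fixed with trichloroacetic acid, SRB-stained, absorbance read at 540 nm, DMSO under 1%.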 The assay is classed as cell-based. Particulars: Homo sapiens, HCC827, 72 h, HCC827 cells, 72 hours, SRB; read-out: GI50 HCC827 EGFR DelE746_A750.

T1 sequence (Q06187 whole entry): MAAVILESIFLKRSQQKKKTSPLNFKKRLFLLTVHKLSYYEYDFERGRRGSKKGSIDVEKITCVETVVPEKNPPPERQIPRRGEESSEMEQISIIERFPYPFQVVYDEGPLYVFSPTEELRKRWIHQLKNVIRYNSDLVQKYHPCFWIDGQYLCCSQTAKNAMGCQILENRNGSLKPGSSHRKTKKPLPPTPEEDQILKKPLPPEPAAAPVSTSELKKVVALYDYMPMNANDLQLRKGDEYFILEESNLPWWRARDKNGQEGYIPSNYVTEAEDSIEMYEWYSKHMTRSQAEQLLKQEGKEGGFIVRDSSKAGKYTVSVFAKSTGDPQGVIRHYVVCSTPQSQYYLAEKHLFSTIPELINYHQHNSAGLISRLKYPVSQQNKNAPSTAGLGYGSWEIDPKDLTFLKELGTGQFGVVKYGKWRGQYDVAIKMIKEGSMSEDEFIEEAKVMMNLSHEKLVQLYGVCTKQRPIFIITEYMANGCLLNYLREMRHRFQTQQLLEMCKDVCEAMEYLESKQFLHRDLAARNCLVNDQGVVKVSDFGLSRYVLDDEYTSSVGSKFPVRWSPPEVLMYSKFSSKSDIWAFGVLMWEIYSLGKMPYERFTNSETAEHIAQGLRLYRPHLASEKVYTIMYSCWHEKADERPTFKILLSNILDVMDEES

A word on the IC50: it is the concentration that gives 50% inhibition. The low end stands for greater potency in that assay, the high end for weaker potency in that assay. As usually defined, the GI50 is the concentration that inhibits growth by half. As to `C=CC(=O)Nc1cccc(Oc2nc(Nc3ccc(N4CCN(C)CC4)cc3)nc3ccsc23)c1` [Example 1, N-(3-(2-(4-(4-methylpiperazin-1-yl)phenylamino)thieno[3,2-d]pyrimidine-4-yloxy)phenyl)acrylamide], the concentration for half-maximal inhibition (IC50) on BTK and against JAK3 was no more than 50 nM each time. The GI50 in assay [1] was less than 50 nM.
